Experimental data taken from PMC2358886, “Evolution of pharmacologic specificity in the pregnane X receptor” (BMC Evolutionary Biology, 2008).
pEC50: −log10 of the molar value. Like-named read-outs stand apart in the source and are kept apart here.

Tests used:
human PXR [1] = biological target: T1, human PXR (Homo sapiens, UniProt O75469); test: PXR activation luciferase reporter assay, human PXR in HepG2-NTCP cells
T1 sequence (O75469 1-434): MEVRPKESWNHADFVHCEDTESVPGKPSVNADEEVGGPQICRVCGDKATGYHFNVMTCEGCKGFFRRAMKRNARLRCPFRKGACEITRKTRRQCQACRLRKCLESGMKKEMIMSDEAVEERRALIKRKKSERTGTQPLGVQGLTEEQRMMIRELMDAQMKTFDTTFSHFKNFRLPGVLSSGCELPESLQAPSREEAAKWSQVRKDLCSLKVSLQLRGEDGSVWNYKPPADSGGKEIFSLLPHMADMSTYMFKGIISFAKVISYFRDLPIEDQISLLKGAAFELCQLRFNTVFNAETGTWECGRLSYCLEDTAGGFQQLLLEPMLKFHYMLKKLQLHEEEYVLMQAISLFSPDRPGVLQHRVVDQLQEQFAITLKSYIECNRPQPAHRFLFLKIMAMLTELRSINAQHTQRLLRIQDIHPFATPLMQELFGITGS

chicken PXR [2] = biological target: T2, chicken PXR (Gallus gallus, UniProt Q9DFH3)
T2 sequence (Q9DFH3 1-391): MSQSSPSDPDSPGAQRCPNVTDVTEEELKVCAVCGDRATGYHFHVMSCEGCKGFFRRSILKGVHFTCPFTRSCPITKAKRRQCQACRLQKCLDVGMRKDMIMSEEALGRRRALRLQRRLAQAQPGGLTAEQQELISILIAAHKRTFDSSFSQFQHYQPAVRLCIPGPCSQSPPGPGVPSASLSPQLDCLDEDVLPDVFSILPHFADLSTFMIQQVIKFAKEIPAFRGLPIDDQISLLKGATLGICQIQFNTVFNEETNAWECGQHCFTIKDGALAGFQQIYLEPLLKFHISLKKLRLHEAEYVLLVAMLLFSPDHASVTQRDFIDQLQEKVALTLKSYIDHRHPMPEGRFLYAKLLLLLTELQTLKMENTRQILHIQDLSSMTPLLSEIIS

zebrafish PXR [3] = biological target: T3, zebrafish PXR (Danio rerio, UniProt A5WYG8); settings: for zfPXR Activity: -log(EC50), EC50 in molar units, activation of zebrafish PXR
T3 sequence (A5WYG8 144-430): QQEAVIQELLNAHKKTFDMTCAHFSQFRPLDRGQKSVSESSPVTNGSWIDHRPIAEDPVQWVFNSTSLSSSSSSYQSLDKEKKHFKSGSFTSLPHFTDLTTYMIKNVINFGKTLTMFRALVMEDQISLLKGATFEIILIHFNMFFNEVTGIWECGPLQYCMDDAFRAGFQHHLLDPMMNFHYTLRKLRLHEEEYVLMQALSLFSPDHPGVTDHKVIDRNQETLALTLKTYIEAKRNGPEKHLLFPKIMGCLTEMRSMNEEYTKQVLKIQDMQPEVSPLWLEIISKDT

chicken PXR [4] = biological target: T2, chicken PXR; test: cell-based
zebrafish PXR [5] = biological target: T3, zebrafish PXR; test: cell-based
HepG2 cells [6] = tested on: HepG2 cells
human PXR [7] = biological target: T1, human PXR
rabbit PXR = biological target: T4, rabbit PXR (Oryctolagus cuniculus, UniProt Q9TU02); test: PXR activation luciferase reporter assay, rabbit PXR; settings: for Rabbit PXR efficacy, ε: relative to 50 μM 5α-pregnan-3,20-dione, assigned an efficacy of 1.0; for Rabbit PXR Activity: -log(EC50), EC50 in molar units
T4 sequence (Q9TU02 1-411): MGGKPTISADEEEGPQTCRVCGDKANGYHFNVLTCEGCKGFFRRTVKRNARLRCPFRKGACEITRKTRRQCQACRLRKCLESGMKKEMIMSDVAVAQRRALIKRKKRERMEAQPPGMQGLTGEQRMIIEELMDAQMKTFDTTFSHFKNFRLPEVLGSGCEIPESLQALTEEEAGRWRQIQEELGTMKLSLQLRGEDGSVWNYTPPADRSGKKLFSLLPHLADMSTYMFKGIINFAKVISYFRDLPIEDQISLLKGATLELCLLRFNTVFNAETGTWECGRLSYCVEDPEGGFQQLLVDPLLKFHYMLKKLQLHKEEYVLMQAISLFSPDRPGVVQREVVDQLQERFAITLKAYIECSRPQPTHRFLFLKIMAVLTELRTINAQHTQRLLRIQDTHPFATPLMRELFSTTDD

mouse PXR [8] = biological target: T5, mouse PXR (Mus musculus, UniProt O54915); settings: for Mouse PXR Activity: -log(EC50), EC50 in molar units
T5 sequence (O54915 1-431): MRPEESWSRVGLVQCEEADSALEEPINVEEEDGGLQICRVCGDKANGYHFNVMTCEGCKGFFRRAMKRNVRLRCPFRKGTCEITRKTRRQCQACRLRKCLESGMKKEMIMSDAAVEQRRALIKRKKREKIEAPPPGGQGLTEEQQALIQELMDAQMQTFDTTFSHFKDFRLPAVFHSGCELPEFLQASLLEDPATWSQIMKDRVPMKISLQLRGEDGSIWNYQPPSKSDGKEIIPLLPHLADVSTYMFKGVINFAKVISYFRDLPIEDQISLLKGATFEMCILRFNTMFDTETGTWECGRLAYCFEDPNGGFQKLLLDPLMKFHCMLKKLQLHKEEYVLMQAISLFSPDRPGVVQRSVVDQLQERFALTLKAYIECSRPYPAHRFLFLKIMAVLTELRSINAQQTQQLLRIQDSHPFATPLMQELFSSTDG

rat PXR [9] = biological target: T6, rat PXR (Rattus norvegicus, UniProt Q9R1A7); test: cell-based
T6 sequence (Q9R1A7 1-431): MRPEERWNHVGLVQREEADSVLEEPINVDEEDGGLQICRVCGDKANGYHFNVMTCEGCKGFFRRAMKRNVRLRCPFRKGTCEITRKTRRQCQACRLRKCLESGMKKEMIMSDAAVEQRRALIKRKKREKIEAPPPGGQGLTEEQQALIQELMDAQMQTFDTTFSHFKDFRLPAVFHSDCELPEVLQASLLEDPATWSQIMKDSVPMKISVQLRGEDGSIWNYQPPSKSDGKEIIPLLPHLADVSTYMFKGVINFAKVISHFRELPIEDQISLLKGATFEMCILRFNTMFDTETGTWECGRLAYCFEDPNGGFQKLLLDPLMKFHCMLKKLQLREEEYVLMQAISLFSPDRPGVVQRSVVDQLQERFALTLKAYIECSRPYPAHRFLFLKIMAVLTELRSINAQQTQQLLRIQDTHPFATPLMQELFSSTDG

rat PXR [10] = biological target: T6, rat PXR; settings: for Rat PXR Activity: -log(EC50), EC50 in molar units
mouse PXR [11] = biological target: T5, mouse PXR; test: cell-based
HepG2 cells [12] = test: Toxicity assays in HepG2 cells (MTT and alamar blue reduction); settings: lowest concentration that produced significant toxicity in the HepG2 cells
[13] = hPXR Activity, -log(EC50), EC50 in molar units, activation of human PXR
[14] = relative to 20 μM 5α-androstan-3α-ol, assigned an efficacy of 1.0
[15] = relative to 20 μM pregnenolone 16α-carbonitrile, assigned an efficacy of 1.0
[16] = -log(EC50), EC50 in molar units, activation of human PXR
[17] = -log(EC50), EC50 in molar units

## C[C@]12CC[C@@H](O)C[C@@H]1CC[C@@H]1[C@@H]2CC[C@]2(C)[C@@H](O)CC[C@@H]12 [AN1, 5α-Androstan-3α,17β-diol]
Human PXR [1]; [13]
  pEC50: 5.38
Chicken PXR [2]; relative to 20 μM nifedipine, assigned an efficacy of 1.0
  Chicken PXR efficacy, ε: 2.28
Zebrafish PXR [3]; [14]
  zfPXR Efficacy: 0.84
Chicken PXR [4]
  pEC50: 5.07
Zebrafish PXR [5]; zfPXR Activity, -log(EC50), EC50 in molar units, activation of zebrafish PXR
  pEC50: 5.19
HepG2 cells [6]
  Toxicity: None
Human PXR [7]; human
  hPXR Efficacy: 0.68

## C[C@@]12CCC[C@H]1[C@@H]1CC[C@H]3C[C@H](O)CC[C@]3(C)[C@H]1CC2 [AN3, 5α-Androstan-3α-ol]
Human PXR [1]; [13]
  pEC50: 5.20
Chicken PXR [2]; chicken
  Chicken PXR efficacy, ε: 0.85
Zebrafish PXR [3]; [14]
  zfPXR Efficacy: 1.00
Chicken PXR [4]
  pEC50: 5.38
Zebrafish PXR [5]
  pEC50: 5.34
HepG2 cells [6]
  Toxicity: None
Human PXR [7]; human
  hPXR Efficacy: 0.5

## C[C@]12CC[C@H](O)C[C@@H]1CC[C@@H]1[C@@H]2CC[C@]2(C)C=CC[C@@H]12 [AN21, 5α-Androst-16-en-3β-ol]
Human PXR [1]
  pEC50: 5.32
Chicken PXR [2]; chicken
  Chicken PXR efficacy, ε: 2.99
Zebrafish PXR [3]; zebrafish
  zfPXR Efficacy: 2.11
Chicken PXR [4]
  pEC50: 5.14
Zebrafish PXR [5]
  pEC50: 5.48
HepG2 cells [6]; human, 24 hr
  Toxicity: 50 µM

## C[C@]12CCC(=O)C[C@@H]1CC[C@@H]1[C@@H]2CC[C@]2(C)C=CC[C@@H]12 [AN22, 5α-Androst-16-en-3-one]
Human PXR [1]
  pEC50: 5.52
Chicken PXR [2]; chicken
  Chicken PXR efficacy, ε: 0.77
Zebrafish PXR [3]; zebrafish
  zfPXR Efficacy: 0.68
Chicken PXR [4]
  pEC50: 4.99
Zebrafish PXR [5]
  pEC50: 5.58
HepG2 cells [6]; human, 24 hr
  Toxicity: 100 µM

## CC(CCC(=O)NCC(=O)O)C1CCC2C3C(O)CC4CC(O)CCC4(C)C3CCC12C (centres unmarked) [BI006, Glycochenodeoxycholic acid]
Chicken PXR [2]; chicken
  Chicken PXR efficacy, ε: 0.41
Chicken PXR [4]
  pEC50: 4.60

## C[C@H](CCC(=O)O)[C@H]1CC[C@H]2[C@@H]3CC[C@@H]4C[C@H](O)CC[C@]4(C)[C@H]3C[C@H](O)[C@]12C [BI008, Deoxycholic acid]
Chicken PXR [2]
  Chicken PXR Activity: No effect
Rabbit PXR
  pEC50: 4.44
  Rabbit PXR efficacy, ε: 0.37
Mouse PXR [8]
  Mouse PXR Activity: No effect
Rat PXR [9]
  pEC50: 5.00
Rat PXR [10]; [15]
  Rat PXR efficacy, ε: 0.32

## C[C@H](CCC(=O)NCCS(=O)(=O)O)[C@H]1CC[C@H]2[C@@H]3[C@H](O)C[C@@H]4C[C@H](O)CC[C@]4(C)[C@H]3C[C@H](O)[C@]12C [BI022, Taurocholic acid]
Mouse PXR [11]
  pEC50: 4.07
Chicken PXR [2]
  Chicken PXR Activity: No effect
Rat PXR [10]
  Rat PXR Activity: No effect

## CC(C)CCC[C@@H](C)[C@H]1CC[C@H]2[C@@H]3[C@H](O)C[C@@H]4C[C@H](O)CC[C@]4(C)[C@H]3C[C@H](O)[C@]12C [BI023, 5β-Cholestan-3α,7α,12α-triol]
Mouse PXR [11]
  pEC50: 5.85
Chicken PXR [2]; chicken
  Chicken PXR efficacy, ε: 0.27
Rabbit PXR
  pEC50: 5.41
  Rabbit PXR efficacy, ε: 0.37
Chicken PXR [4]
  pEC50: 5.89
Mouse PXR [8]; [15]
  Mouse PXR efficacy, ε: 1.23
Rat PXR [9]
  pEC50: 5.65
Rat PXR [10]; [15]
  Rat PXR efficacy, ε: 0.72

## C[C@H](CCC(=O)NCCS(=O)(=O)O)[C@H]1CC[C@H]2[C@@H]3[C@@H](O)[C@@H](O)[C@@H]4C[C@H](O)CC[C@]4(C)[C@H]3CC[C@]12C [BI046, 5β-Cholanic acid-3α,6β,7β-triol N-(2-sulfoethyl)-amide]
Human PXR [1]; [16]
  hPXR Activity: None
Chicken PXR [2]; [17]
  Chicken PXR Activity: No effect
Rabbit PXR
  Rabbit PXR Activity: No effect
Zebrafish PXR [3]
  zfPXR Activity: None
HepG2 cells [12]
  Toxicity: None
Mouse PXR [8]
  Mouse PXR Activity: No effect
Rat PXR [10]
  Rat PXR Activity: No effect

## CC(C)CCC[C@@H](C)[C@H]1CC[C@H]2[C@@H]3[C@H](O)C=C4C[C@@H](O)CC[C@]4(C)[C@H]3CC[C@]12C [BI047, 7α-Hydroxycholesterol]
Human PXR [1]; [16]
  hPXR Activity: None
Chicken PXR [2]; [17]
  Chicken PXR Activity: No effect
Rabbit PXR
  Rabbit PXR Activity: No effect
Zebrafish PXR [3]
  zfPXR Activity: None
HepG2 cells [6]
  Toxicity: None
Mouse PXR [8]
  Mouse PXR Activity: No effect
Rat PXR [10]
  Rat PXR Activity: No effect

## c1ccc2c(c1)cc1ccc3cccc4ccc2c1c34 [MI3, Benzo [a]pyren]
Human PXR [1]; [16]
  hPXR Activity: 4.75
Chicken PXR [2]
  Chicken PXR efficacy, ε: 0.50
Chicken PXR [2]; [17]
  Chicken PXR Activity: 4.40
Rabbit PXR
  Rabbit PXR Activity: No effect
Zebrafish PXR [3]
  zfPXR Efficacy: 0.06
  zfPXR Activity: 4.00
HepG2 cells [6]
  Toxicity: 100 µM
Human PXR [7]
  hPXR Efficacy: 0.55
Mouse PXR [8]
  Mouse PXR efficacy, ε: 0.94
  Mouse PXR Activity: 4.86
Rat PXR [10]
  Rat PXR efficacy, ε: 0.45
  Rat PXR Activity: 4.85
